Patent US20170176439A1, “MARKERS AND THERAPEUTIC INDICATORS FOR GLIOBLASTOMA MULTIFORME (GBM)” (Institute for Systems Biology, priority 2014, published 2017)

Assays:
[1] = tested on: primary GBM cells from SN143 tumor tissues; experiment: Flow cytometry of GBMSig expression in primary GBM cells from SN143 tumor tissue with TGF-β or its inhibitor; format: cell-based
Protocol: The expression of the selected GBMSig proteins responsive to TGF-β viz. SLC16A1, HMOX1, MRC2, SLC16A3, CD47, and CD97 was also tested in primary GBM cells from SN143 tumor tissues in the presence of TGF-β or its inhibitor by flow cytometry.

[2] = tested on: C-terminal phosphorylation of SMAD2; experiment: C-terminal phosphorylation of SMAD2 in U87 cells; format: cell-based
Protocol: (§1) To identify markers for subjects that may benefit from this treatment, astrocytoma cell line U87 was serum starved overnight and treated with 10 ng/ml TGF-β1 for 40 hrs. […] However, as serum contains many essential elements and growth factors, the effect of serum starvation on cells might not be specific to the inhibition of TGF-β signaling. Therefore, we employed a TGF-β-inhibitor (SB 431542) known to interfere with the C-terminal phosphorylation of SMAD2. […] Thus in subsequent SRM analysis, TGF-β-inhibitor was used instead of serum starving.

[3] = tested on: healthy neural stem cells (NSCs); experiment: GBMSig cell-surface expression in healthy NSCs with TGF-β1 or inhibitor; format: cell-based
Protocol: [The source words this procedure for another cell line and reports this cell line under the same test.] The expression of the selected GBMSig proteins responsive to TGF-β viz. SLC16A1, HMOX1, MRC2, SLC16A3, CD47, and CD97 was also tested in primary GBM cells from SN143 tumor tissues in the presence of TGF-β or its inhibitor by flow cytometry. […] EGFR, EGFRVIII, and PTEN altered in GBM can create further heterogeneities in TGF-β responsiveness as observed through the expression of various GBMSig proteins.

[4] = tested on: U-87 cells; settings: U-87, flow cytometry
Protocol: In an alternate assay, six GBMSig proteins viz. SLC16A1, MRC2, CD47, SLC16A3, HMOX1, and CD97 were tested as downstream factors of TGF-β signaling by flow cytometry. TGF-β or TGF-β inhibitor treated intact U-87 cells were analyzed by flow cytometry and the ratio of the respective GBMSig expression in response to TGF-β1 over its inhibitor was obtained.

[5] = tested on: U87 cell line; experiment: d-SRM assays of GBMSig protein expression in U87 cell line after TGF-β vs TGF-β-inhibitor treatment; format: cell-based
Protocol: Novel TGF-β responsive elements were identified among GBMSig through experimental validation. […] U87 cells were treated with TGF-β1 or its inhibitor alone or sequentially with inhibitor followed by TGF-β1. Changes in expressions of GBMSig proteins following such treatments were measured by SRM assays.
as §1

[6] = tested on: isogenic cell lines of U87 (EGFR, EGFRVIII, PTEN); experiment: Cell-surface GBMSig expression in response to TGF-β in U87 isogenic cell lines; format: cell-based
Protocol: Isogenic cell lines of U87 where key proliferative genes such as EGFR and EGFRVIII are overexpressed alone or in combination with PTEN were tested for molecular responsiveness of isogenic cell lines towards TGF-β treatment. In EGFR and EGFRVIII isogenic cell lines, there was elevated surface expression of SLC16A1 and HMOX1 in response to TGF-β treatment. PTEN expression, however, inhibited this effect, indicating possible involvement of a tumor suppressor PTEN in modulating the surface expression of these proteins in GBM. On the other hand, MRC2 and CD47 were up regulated in response to TGF-β treatment when PTEN was overexpressed.
Commonly mutated GBM genes include EGFR, EGFRVIII, and PTEN. Four isogenic cell lines of U87 in which these genes are expressed alone or in combinations of EGFRVIII and PTEN or EGFR and PTEN via a stably integrated retroviral vector were used (Gini, B., et al., Clin Cancer Res. (2013) 19:5722-5732).
There was an increase in the cell-surface expression of CD47, SLC16A3, MRC2, HMOX1 and SLC16A1 in response to TGF-β in all U87 isogenic cell lines similar to that of the parental cell line.

[7] = primary GBM cells from SN143 tissue, flow cytometry
[8] = U87 isogenic overexpressing EGFR
[9] = U87 isogenic overexpressing EGFRVIII

In the case of NC(=O)c1ccc(-c2nc(-c3ccc4c(c3)OCO4)c(-c3ccccn3)[nH]2)cc1 [SB 431542], the “increase in surface expression of HMOX1 in response to TGF-β-inhibitor treatment relative to TGF-β treatment” value ([1]; SN143 tumor-derived GCSC populations) is reported as 30%, the “C-terminal phosphorylation of SMAD2” value ([2]; cells in normal media (DMEM+10% FCS) supplemented with inhibitor) is reported as “dampened or diminished” and the “expression of MRC2, CD47, SLC16A3 and CD97 after TGF-β-inhibitor treatment” value ([3]; NSCs) is reported as “increased expression”. The “effect on SLC16A1, HMOX1 and CD97 expression” value ([3]; healthy NSCs) was “little or no effect”, the “expression of CD47 in response to TGF-β-inhibitor treatment compared to TGF-β1 treatment” value ([3]; healthy NSCs) was 0.61 fold and the “expression of MRC2 in response to TGF-β-inhibitor treatment compared to TGF-β1 treatment” value ([3]; healthy NSCs) was 0.19 fold.
With “TGF-β1: TGF-β1, inducer of epithelial to mesenchymal transition, used at 10 ng/ml to treat cells” the “expression of HMOX1 when treated with TGF-β1 compared to its inhibitor” value [1, 7] was 0.77 fold, the “expression of MRC2 when treated with TGF-β1 compared to its inhibitor” value [1, 7] was 1.62 fold and the “expression of SLC16A1 when treated with TGF-β1 compared to its inhibitor” value [1, 7] was 0.79 fold. The “increase of ratio of cell-surface CD47, TGF-β over TGF-β inhibitor” value [4] was 40%, the “increase of ratio of cell-surface HMOX1, TGF-β over TGF-β inhibitor” value [4] was 20% and the “increase of ratio of cell-surface MRC2, TGF-β over TGF-β inhibitor” value [4] was 25%. For the same compound, the “increase of ratio of cell-surface SLC16A1, TGF-β over TGF-β inhibitor” value [4] was 20%, the “increase of ratio of cell-surface SLC16A3, TGF-β over TGF-β inhibitor” value [4] was 30% and the “increase of ratio of cell-surface CD97, TGF-β over TGF-β inhibitor” value ([4]; essentially no change) was 1.1 fold. The “C-terminal phosphorylation of SMAD2” value ([2]; U87 serum starved overnight, 10 ng/ml TGF-β1 for 40 hrs, in comparison to cells in serum-free media) was “increased”, the “changes in cell-surface expression of SLC16A1, HMOX1, MRC2, CD47, SLC16A3 and CD97 in response to TGF-β treatment” value ([3]; NSCs) was “no significant changes” and the “effect on SLC16A1, HMOX1 and CD97 expression” value ([3]; healthy NSCs) was “little or no effect”. For the same compound, the “CD109 expression following TGF-β treatment relative to TGF-β-inhibitor alone” value [5] was 2.09 fold, the “CLCC1 expression following TGF-β treatment relative to TGF-β-inhibitor alone” value [5] was 2.26 fold and the “CRTAP expression following TGF-β treatment relative to TGF-β-inhibitor alone” value [5] was 2.12 fold. The “DDR2 expression following TGF-β treatment relative to TGF-β-inhibitor alone” value [5] was 3.53 fold, the “ITGA7 expression following TGF-β treatment relative to TGF-β-inhibitor alone” value [5] was 9.45 fold and the “MGST1 expression following TGF-β treatment relative to TGF-β-inhibitor alone” value [5] was 2.77 fold. For the same compound, the “MRC2 expression following TGF-β treatment relative to TGF-β-inhibitor alone” value [5] was 3.06 fold, the “PTGFRN expression following TGF-β treatment relative to TGF-β-inhibitor alone” value [5] was 2.18 fold and the “SLC16A1 expression following TGF-β treatment relative to TGF-β-inhibitor alone” value [5] was 2.05 fold. For the same compound, the “TGFBI expression following TGF-β treatment relative to TGF-β-inhibitor alone” value [5] was 10.54 fold, the “TNC expression following TGF-β treatment relative to TGF-β-inhibitor alone” value [5] was 6.55 fold and the “enrichment of CD47, VCAM1, MYOF, ABCA1, CD44, S100A10, CA12 and SLC16A3 on TGF-β treatment vs. TGF-β-inhibitor treatment” value [5] was over 1.3 fold. For the same compound, the “expression of CD97, SCAMP3, PDIA4, CD99, ABCA1, TMX1, RTN4 and CD151 following TGF-β treatment in comparison to inhibitor treatment” value [5] was “remained largely unchanged”, the “expression of the 11 proteins when TGF-β-inhibitor treated cells were retreated with TGF-β” value [5] was “overexpressed” and the “expression of ASPH, NRP1, CD276 and HMOX1 following TGF-β treatment” value ([5]; vs inhibitor treatment) was “relatively reduced”. For the same compound, the “expression of HMOX1 in response to TGF-β” value ([6]; EGFR+PTEN cells) was 1.058 fold, the “expression of SLC16A1 in response to TGF-β” value ([6]; EGFR+PTEN cells) was 0.724 fold and the “expression of CD97” value ([6]; EGFRVIII alone) was 0.75±0.010 fold. For the same compound, the “expression of SLC16A3” value ([6]; EGFRVIII alone) was 0.97 fold, the “expression of CD97” value ([6]; EGFRVIII+PTEN cells) was 1.51 fold and the “expression of HMOX1 in response to TGF-β” value ([6]; EGFRVIII+PTEN cells) was 1.48 fold. For the same compound, the “expression of SLC16A1 in response to TGF-β” value ([6]; EGFRVIII+PTEN cells) was 1.19 fold, the “expression of SLC16A3” value ([6]; EGFRVIII+PTEN cells) was 1.3 fold and the “increase in expression of HMOX1 in response to TGF-β compared to the parental cell line” value [6, 8] was 2.69 fold. For the same compound, the “increase in expression of SLC16A1 in response to TGF-β compared to the parental cell line” value [6, 8] was 1.5±0.028 fold, the “increase in expression of HMOX1 in response to TGF-β compared to the parental cell line” value [6, 9] was 2.13 fold and the “increase in expression of SLC16A1 in response to TGF-β compared to the parental cell line” value [6, 9] was 1.75 fold. The “cell-surface expression of CD47, SLC16A3, MRC2, HMOX1 and SLC16A1 in response to TGF-β” value ([6]; all U87 isogenic cell lines, similar to parental cell line) was “increase” and the “MRC2 and CD47 expression in response to TGF-β treatment” value ([6]; when PTEN was overexpressed) was “up regulated”.
